According to PMC5663093, “Bioprospecting of novel thermostable β-glucosidase from Bacillus subtilis RA10 and its application in biomass hydrolysis” (Biotechnology for Biofuels, 2017):

How the values were obtained:
[1] = target: T1, BglB (β-glucosidase from B. subtilis RA10) (Bacillus subtilis, UniProt P42403); assay: β-glucosidase activity with added glucose ([…]); assay type: biochemical; details: inhibitor (product); weak inhibition
T1 construct: gene bglC; full-length GH1 gene (1437 bp, start MIHKKQG, end TNGKSL fixed by degenerate primers) in pET28a+ (BamHI/SalI), E. coli BL21(DE3); Asn169-Glu170, nucleophile Glu377

[2] = target: T1, BglB (β-glucosidase from B. subtilis RA10); assay: Michaelis-Menten nonlinear regression, p-nitrophenol release; assay type: biochemical; details: 50 mM citrate pH 5.0; 0.5-5.0 mM substrate

T1 sequence (P42403 whole entry): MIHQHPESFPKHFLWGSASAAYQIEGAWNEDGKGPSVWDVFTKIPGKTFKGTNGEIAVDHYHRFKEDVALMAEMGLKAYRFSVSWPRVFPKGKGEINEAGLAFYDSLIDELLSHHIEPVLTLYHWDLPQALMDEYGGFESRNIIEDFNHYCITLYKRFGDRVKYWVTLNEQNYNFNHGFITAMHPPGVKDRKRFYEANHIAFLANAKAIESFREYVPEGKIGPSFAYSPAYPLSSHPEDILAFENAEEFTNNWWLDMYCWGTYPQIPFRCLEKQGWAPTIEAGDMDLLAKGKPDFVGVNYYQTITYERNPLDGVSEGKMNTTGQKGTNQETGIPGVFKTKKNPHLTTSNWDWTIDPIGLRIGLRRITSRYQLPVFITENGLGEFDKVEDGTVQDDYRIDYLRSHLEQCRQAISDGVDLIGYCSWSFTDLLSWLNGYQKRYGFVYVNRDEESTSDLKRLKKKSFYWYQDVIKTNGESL

| % activity retained at 1000 mM [1] [%] | Km [2] [mM] | SMILES |
| --- | --- | --- |
| 70 |  | OC[C@H]1OC(O)[C@H](O)[C@@H](O)[C@@H]1O (stereo partly drawn) [D-glucose] |
|  | 3.9 ± 0.2 | O=[N+]([O-])c1ccc(O[C@@H]2O[C@H](CO)[C@@H](O)[C@H](O)[C@H]2O)cc1 [pNPG, p-nitrophenyl-β-D-glucopyranoside] |
